Results from patent US20230310624A1, “AFFIBODY-CYTOTOXIN CONJUGATE FOR ACTIVE TARGETED THERAPY OF TUMORS, NANOPARTICLE THEREOF, PREPARATION METHOD THEREOF AND APPLICATION THEREOF” (priority 2020, published 2023).
Where a SMILES comes first, the peptide text is derived from it. [ ]: non-standard residue; d: D form. The star is where a group is joined. Dolaproine = CO[C@@H]([C@@H]1CCCN1)[C@@H](C)C(=O)O; Dil = CC[C@H](C)[C@H](NC)[C@@H](CC(=O)O)OC; X1 = C[C@@H](N*)[C@@H](O)c1ccccc1; NMeV = CN[C@H](C(=O)O)C(C)C

Columns and labels:
[1] = tested on: SKOV-3 tumor; test: therapeutic effects on tumors of SKOV-3 tumor-bearing nude mice; type: in vivo
Description: A cell suspension of SKOV-3 cells in logarithmic growth phase is prepared at a concentration of 4.0><10^6 cells/mL, and inoculated subcutaneously into the right anterior axillary of nude mice, 200 μL per mouse; when the volume of tumor is around 100 mm^3, the mice are randomly selected into 4 groups, 5 in each group, which are respectively a PBS control group, a MMAE 0.6 mg/kg group, a ZHER2:342-MMAE nanoparticle group (the content of MMAE is 0.4 mg/kg), and a ZHER2:342-MMAE nanoparticle group (the content of MMAE is 0.6 mg/kg), wherein 200 μl PBS is injected for the PBS group, 0.6 mg/kg of MMAE is injected for the MMAE 0.6 mg/kg group, ZHER2:342-MMAE (containing 0.4 mg/kg MMAE) is injected for the ZHER2:342-MMAE group (containing 0.4 mg/kg MMAE), and ZHER2:342-MMAE (the content of MMAE is 0.6 mg/kg) is injected for the ZHER2:342-MMAE group (the content of MMAE is 0.6 mg/kg), once every 3 days. After each administration, the survival of tumor-bearing nude mice is observed, and the body weight and tumor size of the mice are measured and photographed for preservation.

[2] = in rats; cited from earlier work
[3] = tested on: SKOV-3 tumor; test: long-term cycle imaging in SKOV-3 tumor-bearing nude mice; type: in vivo
Description: A cell suspension of SKOV-3 cells in logarithmic growth phase is prepared at a concentration of 4.0×10^6 cells/mL, and inoculated subcutaneously into the right anterior axillary of nude mice, 200 μL per mouse; when the volume of tumor is around 500 mm^3, two mice are randomly selected as a control group and an experimental group. […] After 4 h and 12 h of injection, ZKKS-Mulaurora imaging system is used to take pictures and analyze the fluorescence intensity of the whole body of the mice.

Compound: CC[C@H](C)[C@@H]([C@@H](CC(=O)N1CCC[C@H]1[C@H](OC)[C@@H](C)C(=O)N[C@H](C)[C@@H](O)c1ccccc1)OC)N(C)C(=O)[C@@H](NC(=O)[C@@H](NC)C(C)C)C(C)C [MMAE, monomethyl auristatin E] (H-[NMeV]V[Dil][Dolaproine]-X1)
- body weight of the mice ([1]; MMAE 0.6 mg/kg, after administration): drops sharply
- survival of tumor-bearing nude mice ([1]; MMAE (content) 0.6 mg/kg, once every 3 days): all died

Compound: CC(=O)O[C@H]1C(=O)[C@@]2(C)[C@H]([C@H](OC(=O)c3ccccc3)[C@]3(O)C[C@H](OC(=O)[C@H](O)[C@@H](NC(=O)c4ccccc4)c4ccccc4)C(C)=C1C3(C)C)[C@]1(OC(C)=O)CO[C@@H]1C[C@@H]2O [paclitaxel]
- blood half-life period [2]: 1.1 h

Compound: cyanine dye 5.5 [Cy5.5]
- whole-body fluorescence distribution ([3]; after 4 hours of injection): no obvious presence in the mouse body
- whole-body fluorescence distribution ([3]; after 12 hours): basically completely metabolized
